For assay [1], the target named is bat FluA polymerase-vRNA promoter complex. Type of assay: binding.
In another assay the target is FluB polymerase. The class given is binding, human influenza B/Memphis/13/03.
In a further assay the test system is bat FluA polymerase. Type of assay: binding.

The record followed here is patent US20190252037A1 (priority 2016, published 2019).

Bounds are passed on as bounds.

As for “Pol II CTD peptide, four heptad repeats Tyr-Ser-Pro-Thr-SerP-Pro-Ser (28 amino acids), FAM-labelled at the N-terminal end for binding assays (Covalab) [28-mer SeP5 peptide]”, the Kd – broadly, the concentration at which binding is half-saturated – in assay [1] is 900 nM; at FluB polymerase, 2900 nM. For the same substance, in assay [1], the “higher affinity for Ser5 phosphorylated compared to non-phosphorylated CTD repeats” value is over 10 fold. Further, the “binding in the absence of the vRNA promotor” value in the assay on bat FluA polymerase is recorded as “independent of vRNA promoter binding”.
